In PubChem BioAssay (NCI):
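Method: 48-hour compound exposure of cells in 96-well plates, five concentrations, linear interpolation of endpoints. TGI: total growth inhibition.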

What was measured:
Experiment in all cases: inhibition of tumour cell growth, NCI panel, 48 h
[1] = system: CAKI-1 renal
[2] = system: HOP-92 NSCLC
[3] = system: HT29 colon
[4] = system: M14 melanoma
[5] = system: MDA-MB-231 breast
[6] = system: RXF 393 renal
[7] = system: SF-268 CNS
[8] = system: SF-539 CNS
[9] = system: SK-MEL-2 melanoma
[10] = system: SR leukemia
[11] = system: T-47D breast
[12] = system: OVCAR-5 ovarian

Compound | TGI [1] | TGI [2] | TGI [3] | TGI [4] | TGI [5] | TGI [6] | TGI [7] | TGI [8] | TGI [9] | TGI [10] | TGI [11] | TGI [12]
CC(C)CCCC(C)[C@H]1CC[C@H]2n3c(nc4ccccc43)CCC[C@]12C (stereo not given in full) | 34.3 µM | 37.3 µM | 26.4 µM | 35.4 µM | 33 µM | 33.5 µM | 43 µM | 35.2 µM | 35.5 µM | 37.2 µM | 35.8 µM | 
O=C(Oc1c(Cl)cc(C2(c3cc(Cl)c(OC(=O)c4ccccc4)c(Cl)c3)CCCCC2)cc1Cl)c1ccccc1 | 18.5 µM | 21.8 µM | 30 µM | 30.3 µM | 27.3 µM | 25.9 µM | 27.2 µM | 29.2 µM | 23.9 µM |  | 37.2 µM | 27.4 µM
C=C1C(=O)O[C@@H]2/C=C(\C)CC/C=C(\C)CC[C@@]12O | 2.79 µM | 3.63 µM | 10.9 µM | 10.5 µM | 22.8 µM | 0.897 µM | 13.8 µM | 3.39 µM | 25.7 µM | 10.8 µM | 3.33 µM | 25.8 µM
CCc1n[nH]c(=O)n1/N=C(\C)c1ccc([N+](=O)[O-])cc1 | > 100 µM | > 100 µM | > 100 µM | > 100 µM | > 100 µM | > 100 µM | > 100 µM |  | > 100 µM |  | > 100 µM | > 100 µM
COc1cc(/C=C2\N=C(c3ccccc3)N(c3ccc(C(=O)c4ccccc4)cc3N3C(=O)/C(=C/c4ccc(O)c(OC)c4)N=C3c3ccccc3)C2=O)ccc1O | 71 µM | > 100 µM | 51.5 µM | 25.1 µM | 43.8 µM |  | 74 µM | 17.2 µM | 29.9 µM | 33.9 µM | 27.3 µM | 95.5 µM
CCCCN1C(=O)c2c(Br)sc(Br)c2C1=O | > 100 µM |  | 47.1 µM | > 100 µM | > 100 µM | > 100 µM | > 100 µM | 69.1 µM | > 100 µM | 85.6 µM | > 100 µM | > 100 µM
Cc1[nH]c(=O)[nH]c(=O)c1/C=C/C(=O)NC(CO)CS(=O)CS(C)=O (stereo not given) | 13.3 µM | 44 µM | 515 µM |  |  | 125 µM | 35.2 µM | 51.5 µM | 59.2 µM |  |  | 483 µM
Cc1cc2c(c(O)c1-c1c(C)cc(O)c3c1C(=O)C=CC3=O)C(=O)C=CC2=O | 1.48 µM |  |  | > 100 µM | 4.88 µM | 2.5 µM |  | 31.7 µM | 62.1 µM | 0.265 µM | 3.67 µM | 7.86 µM
COc1ccc(-c2nc3c(nc2-c2ccc(OC)cc2)C(N)=NS(=O)(=O)N3)cc1 | > 100 µM |  | > 100 µM |  |  | > 100 µM | > 100 µM | > 100 µM | > 100 µM |  |  | > 100 µM
CC(=O)O[C@H]1CC[C@H]2[C@@H]3CCC4=CC(=O)C=C[C@]4(O)[C@H]3CC[C@]12C | > 100 µM | 92.3 µM |  | > 100 µM | > 100 µM | 76 µM |  | > 100 µM | > 73.4 µM | 5.1 µM | > 100 µM | > 100 µM
